{"source": "patent US20260130933A1", "about": "“PHARMACEUTICAL COMPOSITION FOR PREVENTION OR TREATMENT OF NEPHROPATHY AND/OR DIABETES MELLITUS, COMPRISING ENAVOGLIFLOZIN” (DAEWOONG PHARMACEUTICAL CO., LTD., priority 2022, published 2026)", "assay": "Example 3: phase 3 trial, enavogliflozin 0.3 mg vs dapagliflozin 10 mg once a day for 24 weeks added to metformin and gemigliptin in patients with type 2 diabetes (same endpoints, rescue drug)", "format": "in vivo, human", "details": "week 12", "procedure": "1) when Metformin (≥1,000 mg/Day) was Administered at a Constant Dose for at Least 8 Weeks Prior to Pre-Visit (Pre-Screening) • Metformin (≥1,000 mg/day) and gemigliptin (50 mg/day) were co-administered during the 8-week stabilization period. […] 4) when Metformin (≥1,000 mg/Day) and Gemigliptin (50 mg/Day) were Co-Administered at Constant Doses for at Least 8 Weeks Prior to Pre-Visit (Prescreening) • Without a separate stabilization period, Pre-visit (pre-screening) was Visit 1 (screening).\nSubjects who met the inclusion/exclusion criteria continued to receive metformin and gemigliptin while receiving a placebo of the clinical trial drug in a single-blind (subject-blinded) state for a 2-week run-in period.\nHere, the randomized subjects were stratified according to the administration therapy (co-administration with two or less agents (one or two agents) or three or more agents) of a conventional hypoglycemic agent (before washout of another hypoglycemic agent) within 24 weeks prior to obtaining written informed consent and by an HbA1c value (<8% or ≥8%) at Visit 1 (screening) measured in the central laboratory.\nThe randomized subjects were administered two tablets of the clinical trial drug corresponding to each administration group once a day, and then visited the institution at weeks 6, 12, 18, and 24 during the 24-week administration period to conduct efficacy and safety assessments. In addition, during the clinical trial period, they were instructed to exercise regularly and control their diet without changing their daily life patterns.\n• 1) Change in HbA1c at week 24 after administration of clinical trial drug compared to Visit 2 (randomization)\n• 1) Change in HbA1c at each time point of weeks 6, 12, and 18 after administration of clinical trial drug compared to Visit 2 (randomization) • 2) Change in FPG at each time point of weeks 6, 12, 18, and 24 after administration of clinical trial drug compared to Visit 2 (randomization) • 3) Proportion of subjects achieving HbA1c<7% at each time point of weeks 6, 12, 18, and 24 after administration of clinical trial drug • 4) Proportion of subjects achieving HbA1c<6.5% at each time point of weeks 6, 12, 18, and 24 after administration of clinical trial drug • 5) Proportion of subjects achieving therapeutic response (HbA1c change (HbA1c at Visit 2—HbA1c at each evaluation time point)>0.5% or HbA1c<7% at each evaluation time point compared to Visit 2 (randomization)) at each time point of weeks 6, 12, 18, and 24 after administration of clinical trial drug • 6) Proportion of subjects achieving therapeutic response (HbA1c change (HbA1c at Visit 2—HbA1c at each evaluation time point)>0.7% or HbA1c<7% at each evaluation time point compared to Visit 2 (randomization)) at each time point of weeks 6, 12, 18, and 24 after administration of clinical trial drug • 7) Proportion of subjects achieving therapeutic response (HbA1c change (HbA1c at Visit 2—HbA1c at each evaluation time point)>1% or HbA1c<7% at each evaluation time point compared to Visit 2 (randomization)) at each time point of weeks 6, 12, 18, and 24 after administration of clinical trial drug", "key": {"[1]": {"details": "modified per-protocol set 2, enavogliflozin 0.3 mg, dapagliflozin 10 mg"}, "[2]": {"details": "per-protocol set, enavogliflozin 0.3 mg vs dapagliflozin 10 mg"}, "[3]": {"details": "per-protocol set, enavogliflozin 0.3 mg, dapagliflozin 10 mg"}}}
{"smiles": "OC[C@H]1O[C@@H](c2cc(Cc3ccc(C4CC4)cc3)c(Cl)c3c2CCO3)[C@H](O)[C@@H](O)[C@@H]1O", "note": "[Enavogliflozin, (2S,3R,4R,5S,6R)-2-(7-chloro-6 (4-cyclopropylbenzyl)-2,3-dihydrobenzofuran-4-yl)-6-(hydroxymethyl)tetrahydro-2H-pyran-3,4,5-triol]", "values": [{"measurement": "Change from baseline in diastolic blood pressure, Mean", "setting": "modified per-protocol set 2", "value": "−5.07", "unit": "mmHg"}, {"measurement": "Change from baseline in diastolic blood pressure, Median", "setting": "modified per-protocol set 2", "value": "−5.00", "unit": "mmHg"}, {"measurement": "Diastolic blood pressure, Mean", "setting": "modified per-protocol set 2", "value": 71.61, "unit": "mmHg"}, {"measurement": "Diastolic blood pressure, Median", "setting": "modified per-protocol set 2", "value": 72.00, "unit": "mmHg"}, {"measurement": "Change from baseline in systolic blood pressure, ANCOVA LS mean difference", "setting": "modified per-protocol set 2, enavogliflozin 0.3 mg vs dapagliflozin 10 mg", "value": "−1.37", "unit": "mmHg"}, {"measurement": "Change from baseline in systolic blood pressure, ANCOVA LS mean", "setting": "[1]", "value": "−6.43", "unit": "mmHg"}, {"measurement": "Change from baseline in systolic blood pressure, Mean", "setting": "[1]", "value": "−7.10", "unit": "mmHg"}, {"measurement": "Change from baseline in systolic blood pressure, Median", "setting": "[1]", "value": "−8.00", "unit": "mmHg"}, {"measurement": "Systolic blood pressure, Mean", "setting": "[1]", "value": 120.73, "unit": "mmHg"}, {"measurement": "Systolic blood pressure, Median", "setting": "[1]", "value": 121.00, "unit": "mmHg"}, {"measurement": "Adiponectin, Mean", "setting": "per-protocol set", "value": 7.13, "unit": "µg/mL"}, {"measurement": "Adiponectin, Median", "setting": "per-protocol set", "value": 6.24, "unit": "µg/mL"}, {"measurement": "Change from baseline in HOMA-IR, ANCOVA LS mean", "setting": "per-protocol set", "value": "−1.11"}, {"measurement": "Change from baseline in HOMA-IR, LS mean difference (enavogliflozin − dapagliflozin)", "setting": "per-protocol set", "value": "−0.06"}, {"measurement": "Change from baseline in HOMA-IR, Mean", "setting": "per-protocol set", "value": "−1.16"}, {"measurement": "Change from baseline in HOMA-IR, Median", "setting": "per-protocol set", "value": "−0.79"}, {"measurement": "Change from baseline in HOMA-β, ANCOVA LS mean", "setting": "per-protocol set", "value": 7.78}, {"measurement": "Change from baseline in HOMA-β, LS mean difference (enavogliflozin − dapagliflozin)", "setting": "per-protocol set", "value": 2.55}, {"measurement": "Change from baseline in HOMA-β, Mean", "setting": "per-protocol set", "value": 6.71}, {"measurement": "Change from baseline in HOMA-β, Median", "setting": "per-protocol set", "value": 4.80}, {"measurement": "Change from baseline in UACR, ANCOVA LS mean", "setting": "per-protocol set", "value": -15.12, "unit": "g/kg"}, {"measurement": "Change from baseline in UACR, LS mean difference (enavogliflozin − dapagliflozin)", "setting": "per-protocol set", "value": -3.35, "unit": "g/kg"}, {"measurement": "Change from baseline in UACR, Mean", "setting": "per-protocol set", "value": -18.62, "unit": "g/kg"}, {"measurement": "Change from baseline in UACR, Median", "setting": "per-protocol set", "value": -1.05, "unit": "g/kg"}, {"measurement": "Change from baseline in UGCR, ANCOVA LS mean", "setting": "per-protocol set", "value": 58.21, "unit": "mg/mg"}, {"measurement": "Change from baseline in UGCR, LS mean difference (enavogliflozin − dapagliflozin)", "setting": "per-protocol set", "value": 13.37, "unit": "mg/mg"}, {"measurement": "Change from baseline in UGCR, Mean", "setting": "per-protocol set", "value": 57.00, "unit": "mg/mg"}, {"measurement": "Change from baseline in UGCR, Median", "setting": "per-protocol set", "value": 57.05, "unit": "mg/mg"}, {"measurement": "Change from baseline in adiponectin, ANCOVA LS mean", "setting": "per-protocol set", "value": 0.89, "unit": "µg/mL"}, {"measurement": "Change from baseline in adiponectin, LS mean difference (enavogliflozin − dapagliflozin)", "setting": "per-protocol set", "value": 0.19, "unit": "µg/mL"}, {"measurement": "Change from baseline in adiponectin, Mean", "setting": "per-protocol set", "value": 0.88, "unit": "µg/mL"}, {"measurement": "Change from baseline in adiponectin, Median", "setting": "per-protocol set", "value": 1.00, "unit": "µg/mL"}, {"measurement": "Change from baseline in leptin, ANCOVA LS mean", "setting": "per-protocol set", "value": -1.97, "unit": "ng/mL"}, {"measurement": "Change from baseline in leptin, LS mean difference (enavogliflozin − dapagliflozin)", "setting": "per-protocol set", "value": -0.28, "unit": "ng/mL"}, {"measurement": "Change from baseline in leptin, Mean", "setting": "per-protocol set", "value": -1.96, "unit": "ng/mL"}, {"measurement": "Change from baseline in leptin, Median", "setting": "per-protocol set", "value": -1.28, "unit": "ng/mL"}, {"measurement": "HOMA-IR (insulin resistance), Mean", "setting": "per-protocol set", "value": 1.76}, {"measurement": "HOMA-IR (insulin resistance), Median", "setting": "per-protocol set", "value": 1.46}, {"measurement": "HOMA-β (beta-cell function), Mean", "setting": "per-protocol set", "value": 49.46}, {"measurement": "HOMA-β (beta-cell function), Median", "setting": "per-protocol set", "value": 41.50}, {"measurement": "Leptin, Mean", "setting": "per-protocol set", "value": 8.56, "unit": "ng/mL"}, {"measurement": "Leptin, Median", "setting": "per-protocol set", "value": 5.74, "unit": "ng/mL"}, {"measurement": "UACR, Mean", "setting": "per-protocol set", "value": 29.37, "unit": "g/kg"}, {"measurement": "UACR, Median", "setting": "per-protocol set", "value": 11.20, "unit": "g/kg"}, {"measurement": "UGCR, Mean", "setting": "per-protocol set", "value": 57.71, "unit": "mg/mg"}, {"measurement": "UGCR, Median", "setting": "per-protocol set", "value": 57.43, "unit": "mg/mg"}, {"measurement": "Achieving HbA1c target of <6.5%, odds ratio (logistic regression model)", "setting": "[2]", "value": 1.44}, {"measurement": "Achieving HbA1c target of <7%, odds ratio (logistic regression model)", "setting": "[2]", "value": 1.20}, {"measurement": "Change from baseline in FPG, ANCOVA LS mean difference", "setting": "[2]", "value": -2.75, "unit": "mg/dL"}, {"measurement": "Change from baseline in HbA1c, ANCOVA LS mean difference", "setting": "[2]", "value": "−0.04", "unit": "% p"}, {"measurement": "Change from baseline in body weight, ANCOVA LS mean difference", "setting": "[2]", "value": -0.01, "unit": "kg"}, {"measurement": "Change from baseline in fasting C-peptide, ANCOVA LS mean difference", "setting": "[2]", "value": -0.02, "unit": "ng/mL"}, {"measurement": "Therapeutic glycemic response 1, odds ratio (logistic regression model)", "setting": "[2]", "value": 1.09}, {"measurement": "Therapeutic glycemic response 2, odds ratio (logistic regression model)", "setting": "[2]", "value": 1.30}, {"measurement": "Therapeutic glycemic response 3, odds ratio (logistic regression model)", "setting": "[2]", "value": 1.31}, {"measurement": "Body weight, Mean", "setting": "[3]", "value": 66.54, "unit": "kg"}, {"measurement": "Change from baseline in FPG, ANCOVA LS mean", "setting": "[3]", "value": -27.17, "unit": "mg/dL"}, {"measurement": "Change from baseline in FPG, Mean", "setting": "[3]", "value": -27.47, "unit": "mg/dL"}, {"measurement": "Change from baseline in FPG, Median", "setting": "[3]", "value": -25.00, "unit": "mg/dL"}, {"measurement": "Change from baseline in HbA1c, ANCOVA LS mean", "setting": "[3]", "value": "−0.87", "unit": "% p"}, {"measurement": "Change from baseline in HbA1c, Mean", "setting": "[3]", "value": "−0.89", "unit": "% p"}, {"measurement": "Change from baseline in HbA1c, Median", "setting": "[3]", "value": "−0.75", "unit": "% p"}, {"measurement": "Change from baseline in body weight, ANCOVA LS mean", "setting": "[3]", "value": -2.72, "unit": "kg"}, {"measurement": "Change from baseline in body weight, Mean", "setting": "[3]", "value": -2.65, "unit": "kg"}, {"measurement": "Change from baseline in body weight, Median", "setting": "[3]", "value": -2.90, "unit": "kg"}, {"measurement": "Change from baseline in fasting C-peptide, ANCOVA LS mean", "setting": "[3]", "value": -0.09, "unit": "ng/mL"}, {"measurement": "Change from baseline in fasting C-peptide, Mean", "setting": "[3]", "value": -0.09, "unit": "ng/mL"}, {"measurement": "Change from baseline in fasting C-peptide, Median", "setting": "[3]", "value": -0.10, "unit": "ng/mL"}, {"measurement": "FPG, Mean", "setting": "[3]", "value": 112.29, "unit": "mg/dL"}, {"measurement": "FPG, Median", "setting": "[3]", "value": 110.00, "unit": "mg/dL"}, {"measurement": "Fasting C-peptide, Mean", "setting": "[3]", "value": 0.64, "unit": "ng/mL"}, {"measurement": "Fasting C-peptide, Median", "setting": "[3]", "value": 0.63, "unit": "ng/mL"}, {"measurement": "HbA1c, Mean", "setting": "[3]", "value": 6.90, "unit": "%"}]}
